According to US5264347A, “Method for the determination of α-ketoisocaproate in biological samples using D-α-hydroxyisocaproic dehydrogenase from lactobacillus casei” (Kernforschungsanlage Juelich GmbH, priority 1988, dated 1993):

How the values were obtained:
[1] = molecular target: T1, hydroxy-acid dehydrogenase (enzyme solution) of L. casei ssp. pseudoplantarum DSM 20 008 (Lacticaseibacillus paracasei, UniProt P17584); assay: Selection of a suitable enzyme: initial reaction rate with keto acid, NADH absorption at 340 nm; assay type: biochemical, Lactobacillus casei ssp. pseudoplantarum; conditions: 0.15 mM keto acid, 0.2 mM NADH, pH 7.0
T1 construct: the cells were disrupted by mechanical action, and the supernatant obtained by centrifugation was used as; endogenous in cells; host or cells: Lactobacillus casei ssp. pseudoplantarum DSM 20008, cell-free supernatant
T1 sequence (P17584 1-333): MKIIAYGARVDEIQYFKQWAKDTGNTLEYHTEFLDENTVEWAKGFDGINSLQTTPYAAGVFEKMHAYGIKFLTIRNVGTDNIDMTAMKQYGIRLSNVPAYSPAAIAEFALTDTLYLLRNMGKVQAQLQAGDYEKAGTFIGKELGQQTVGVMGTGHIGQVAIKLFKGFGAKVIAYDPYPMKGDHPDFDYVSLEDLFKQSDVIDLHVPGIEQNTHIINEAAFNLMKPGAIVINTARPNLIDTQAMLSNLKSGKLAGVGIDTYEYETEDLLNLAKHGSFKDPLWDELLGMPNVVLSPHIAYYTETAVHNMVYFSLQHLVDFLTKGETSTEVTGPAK
Procedure: (§1) The species Lactobacillus casei is currently divided into five subgroups (subspecies). […] The three keto acids KIC, KMV and KIV were used in a concentration of 0.15 mM (final concentration in the assay).
(§2) For the assay mixture, the microorganisms which had been cultured under customary conditions were harvested, the cells were disrupted by mechanical action, and the supernatant obtained by centrifugation was used as "enzyme solution" for the assay.
(§3) The assay mixture contained:
(§4) 0.1M potassium phosphate buffer, pH 7.0;
(§5) 0.020 ml of enzyme solution (0.1-0.2 mg of protein);
(§6) The initial reaction rate was determined by measuring the absorption at 340 nm as a function of time. (The reaction rate is reported in international units (IU)/min.) The results obtained are summarized below.

[2] = molecular target: T2, hydroxy-acid dehydrogenase (enzyme solution) of L. casei ssp. pseudoplantarum DSM 20 207 (Lacticaseibacillus paracasei, UniProt P17584); assay: as above; assay type: biochemical, Lactobacillus casei ssp. pseudoplantarum; conditions: 0.15 mM keto acid, 0.2 mM NADH, pH 7.0
T2 sequence (P17584 1-333): T1 sequence (P17584 1-333)
Procedure: as §1, §2, §3, §4, §5, §6

[3] = molecular target: T3, hydroxy-acid dehydrogenase (enzyme solution) of L. casei ssp. casei DSM 20 011 (Lacticaseibacillus casei, UniProt A0AAN1C5W2); assay: as above; assay type: biochemical, Lactobacillus casei ssp. casei; conditions: 0.15 mM keto acid, 0.2 mM NADH, pH 7.0
T3 sequence (A0AAN1C5W2 1-333): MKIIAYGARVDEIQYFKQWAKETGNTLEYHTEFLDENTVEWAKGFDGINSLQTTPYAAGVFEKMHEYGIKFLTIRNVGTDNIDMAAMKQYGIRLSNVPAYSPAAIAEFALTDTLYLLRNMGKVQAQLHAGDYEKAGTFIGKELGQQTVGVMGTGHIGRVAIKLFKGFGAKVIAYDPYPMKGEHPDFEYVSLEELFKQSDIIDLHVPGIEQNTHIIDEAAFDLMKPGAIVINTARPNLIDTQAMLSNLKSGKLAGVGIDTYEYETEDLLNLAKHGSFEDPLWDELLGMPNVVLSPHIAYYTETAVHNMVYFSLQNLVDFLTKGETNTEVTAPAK
Procedure: as §1, §2, §3, §4, §5, §6

[4] = test system: hydroxy-acid dehydrogenase (enzyme solution) of L. case ssp. alactosus DSM 20 020; assay: as above; assay type: biochemical; conditions: 0.15 mM keto acid, 0.2 mM NADH, pH 7.0
Procedure: as §1, §2, §3, §4, §5, §6

[5] = test system: hydroxy-acid dehydrogenase (enzyme solution) of L. casei ssp. rhamosus DSM 20 021; assay: as above; assay type: biochemical; conditions: 0.15 mM keto acid, 0.2 mM NADH, pH 7.0
Procedure: as §1, §2, §3, §4, §5, §6

[6] = test system: hydroxy-acid dehydrogenase (enzyme solution) of L. casei ssp. tolerans DSM 20 258; assay: as above; assay type: biochemical; conditions: 0.15 mM keto acid, 0.2 mM NADH, pH 7.0
Procedure: as §1, §2, §3, §4, §5, §6

[7] = molecular target: T4, hydroxy-acid dehydrogenase (enzyme solution) of L. confusus DSM 20 196 (Weissella confusa, UniProt P14295); assay: as above; assay type: biochemical; conditions: 0.15 mM keto acid, 0.2 mM NADH, pH 7.0
T4 sequence (P14295 1-310): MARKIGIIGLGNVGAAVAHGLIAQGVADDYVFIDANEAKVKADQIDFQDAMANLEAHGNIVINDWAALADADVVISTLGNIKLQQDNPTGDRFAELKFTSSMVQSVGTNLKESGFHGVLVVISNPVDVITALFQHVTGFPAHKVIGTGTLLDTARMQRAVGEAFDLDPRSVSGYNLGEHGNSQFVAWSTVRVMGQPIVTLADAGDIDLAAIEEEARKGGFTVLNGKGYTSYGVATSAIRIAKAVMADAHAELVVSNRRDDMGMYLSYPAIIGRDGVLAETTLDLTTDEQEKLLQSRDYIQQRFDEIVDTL
Procedure: (§7) The species Lactobacillus casei is currently divided into five subgroups (subspecies). […] The three keto acids KIC, KMV and KIV were used in a concentration of 0.15 mM (final concentration in the assay). […] For the assay mixture, the microorganisms which had been cultured under customary conditions were harvested, the cells were disrupted by mechanical action, and the supernatant obtained by centrifugation was used as "enzyme solution" for the assay. Besides the various Lactobacillus casei strains, other Lactobacillus strains were also investigated; two typical representatives are listed in a table below. The assay mixture contained: 0.1M potassium phosphate buffer, pH 7.0; 0.2 mM NADH; 0.020 ml of enzyme solution (0.1-0.2 mg of protein); 0.15 mM keto acid (as shown in the table). The initial reaction rate was determined by measuring the absorption at 340 nm as a function of time. (The reaction rate is reported in international units (IU)/min.) The results obtained are summarized below.

[8] = test system: hydroxy-acid dehydrogenase (enzyme solution) of L. curvatus DSM 20 019; assay: as above; assay type: biochemical; conditions: 0.15 mM keto acid, 0.2 mM NADH, pH 7.0
Procedure: as §7

[9] = molecular target: T5, D-α-hydroxyisocaproic dehydrogenase from Lactobacillus casei ssp. pseudoplantarum (DSM 20008) (Lacticaseibacillus paracasei, UniProt P17584); assay: Enzymatic selectivity for KIC: initial reaction rates versus keto acid concentration (FIG. 1); assay type: biochemical; conditions: change per minute in absorption at 340 nm versus keto-acid concentration, NADH present
T5 construct: D-α-hydroxyisocaproic dehydrogenase from Lactobacillus casei ssp. pseudoplantarum (DSM 20008); endogenous in cells; host or cells: Lactobacillus casei ssp. pseudoplantarum DSM 20008 (enzyme isolated from the strain's own cells)
T5 sequence (P17584 1-333): T1 sequence (P17584 1-333)
Excerpt: This selectivity is illustrated in FIG. 1, which plots a measure of reaction rate (change per minute in absorption at 340 nm), in the presence of NADH and a Lactobacillus casei D-α-hydroxyisocaproicdehydrogenase, versus keto-acid concentration for KIC, KMV and KIV, respectively. In FIG. 1, .largecircle.--.largecircle. represents ketoisocaproate, O O represents ketomethylvalerate and .quadrature.----.quadrature. represents ketoisovalerate, respectively.
This entailed use of standard solutions of the three keto acids, each of known concentration (0.2 to 15 ωg/ml of assay mixture).
as §3, §4
stepped concentrations of keto acids.
The initial reaction rates (ΔA340 /min) were measured at 340 nm. […] This difference would be sufficient for a selective determination of KIC, for example, in serum.

CCC(C)C(=O)C(=O)O (stereo not drawn) [KMV, ketomethylvalerate]
initial reaction rate [1]: 0.12 IU/min
initial reaction rate [2]: 0 IU/min
initial reaction rate [3]: 0 IU/min
initial reaction rate [4]: 0 IU/min
initial reaction rate [5]: 0 IU/min
initial reaction rate [6]: 0 IU/min
initial reaction rate [7]: 0.90 IU/min
initial reaction rate [8]: 1.40 IU/min
enzymatic conversion relative to the conversion of KIC (FIG. 1) [9]: can be ignored
